Assay [1] has as its system YAP nuclear translocation in HaCaT cells. Nature of the assay: YAP Translocation Assay (HaCaT Cells). Type of assay: cell-based, human. Particulars: Homo sapiens, 24 hours. The essentials:
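HaCaT cells (20,000/well) in DMEM + 10% FBS were plated overnight at 37° C, then exposed to compound for 24 h at 37° C. Cells were fixed with PFA, permeabilized with 0.1% Triton/1.5% BSA and imaged by high-content imaging.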

Assay [2] has as its system Phospho-YAP (SER127) in HaCaT cells. As to the kind of experiment: pYAP HTRF Assay (HaCaT Cells). Type of assay: cell-based, human. Particulars: Homo sapiens, 2 hours. The essentials: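 Phospho-YAP (Ser127) was measured by HTRF (665 nm/620 nm ratio) in HaCaT cells. Cells were grown 48 hours at 37° C at 5500 cells/well, exposed to compound for 2 hours, and incubated with detection reagents for 20 hrs at room temperature.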
(TR-FRET usually uses a lanthanide donor and a delayed reading to cut background.)

Assay [3] concerns Phospho-YAP (Ser127) in JHH-5 cells. As to the kind of experiment: pYAP HTRF Assay (JHH-5 cells). Type of assay: cell-based. Particulars: 2 hours. Here is the method: Briefly, JHH-5 cells are suspended at 0.48×10^6 cells/ml in William's E medium without phenol-red (Thermo Fisher Scientific Gibco catalog number A1217601) supplemented with 10% (v/v) heat-inactivated fetal bovine serum (Thermo Fisher Scientific Gibco catalog number 16140071) and penicillin-streptomycin at 100 U/ml each (Thermo Fisher Scientific Gibco catalog number 15140122). Cells are dispensed into 384well clear bottom culture plates (50 ul/well, at 24000 cells per well, Greiner catalog number 781091), and incubated for 24 hours in a cell culture incubator at 37° C. Test compounds are transferred into culture plates containing JHH-5 cells using an Echo550 (Labcyte) acoustic dispenser (50 nl/well), followed by incubation for 2 hours at 37° C. Lysis buffer (part of CisBio kit catalog number 64YAPPEI) is added to the assay plates as a four-fold concentrate (corresponding to 16 ul/well) and incubated for 30 minutes at room temperature with agitation. Lysate is transferred from culture plates into white low-volume 384well assay plates (12 ul/well, Greiner catalog number 784075), followed by the addition of 3 ul/well of detection antibodies (part of CisBio kit catalog number 64YAPPEI: 1:40 dilution of each pYAP d2 antibody and pYAP cryptate antibody stocks). The plates are sealed and incubated overnight (18 hours) at room temperature protected from light. Plates are read on an EnVision plate reader (Perkin Elmer) at emission wavelengths of 665 nm and 620 nm. The HTRF signal ratio x per well is calculated as [x=Signal(665 nm)/Signal(620 nm)×10000] as specified in the manufacturer's protocol.

Another assay concerns the target LATS1 (Homo sapiens (Human), UniProt O95835). As to the kind of experiment: LATS1 biochemical assay (Table 1A, Compound Examples 1-290; method in the earlier part).

pEC50, pIC50: −log10 of the molar value. Some results are limits rather than exact numbers.

Chain of LATS1 (O95835 whole entry, looked up): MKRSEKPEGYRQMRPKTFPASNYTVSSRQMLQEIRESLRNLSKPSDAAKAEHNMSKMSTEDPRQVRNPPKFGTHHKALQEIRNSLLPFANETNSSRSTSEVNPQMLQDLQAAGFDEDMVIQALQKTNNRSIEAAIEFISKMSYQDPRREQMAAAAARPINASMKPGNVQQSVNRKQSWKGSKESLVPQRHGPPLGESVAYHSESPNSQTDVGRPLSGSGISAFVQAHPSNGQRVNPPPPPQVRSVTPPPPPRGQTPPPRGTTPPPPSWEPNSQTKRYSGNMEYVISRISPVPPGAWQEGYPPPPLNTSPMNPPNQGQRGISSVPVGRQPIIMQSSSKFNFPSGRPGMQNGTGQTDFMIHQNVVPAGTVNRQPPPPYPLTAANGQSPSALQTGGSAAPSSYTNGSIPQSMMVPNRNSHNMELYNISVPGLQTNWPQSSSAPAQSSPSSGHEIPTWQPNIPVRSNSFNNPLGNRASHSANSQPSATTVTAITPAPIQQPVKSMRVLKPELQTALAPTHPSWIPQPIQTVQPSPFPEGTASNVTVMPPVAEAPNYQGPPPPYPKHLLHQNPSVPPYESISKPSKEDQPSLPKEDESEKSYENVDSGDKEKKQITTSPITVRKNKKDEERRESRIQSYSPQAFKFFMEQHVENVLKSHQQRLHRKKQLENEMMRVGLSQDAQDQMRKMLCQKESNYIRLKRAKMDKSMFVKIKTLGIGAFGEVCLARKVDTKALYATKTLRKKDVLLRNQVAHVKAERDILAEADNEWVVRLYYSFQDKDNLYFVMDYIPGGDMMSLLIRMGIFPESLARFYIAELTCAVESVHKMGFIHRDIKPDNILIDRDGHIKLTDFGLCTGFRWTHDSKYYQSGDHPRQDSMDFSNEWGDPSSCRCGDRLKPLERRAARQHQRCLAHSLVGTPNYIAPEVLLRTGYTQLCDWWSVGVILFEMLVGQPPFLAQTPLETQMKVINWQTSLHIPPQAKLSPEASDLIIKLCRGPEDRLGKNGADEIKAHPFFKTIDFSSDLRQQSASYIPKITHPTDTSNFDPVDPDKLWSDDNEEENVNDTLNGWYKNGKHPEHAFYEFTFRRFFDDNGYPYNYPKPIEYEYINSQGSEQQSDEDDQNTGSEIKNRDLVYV
Chain of LATS1 (Q7L9L4 whole entry partner, looked up): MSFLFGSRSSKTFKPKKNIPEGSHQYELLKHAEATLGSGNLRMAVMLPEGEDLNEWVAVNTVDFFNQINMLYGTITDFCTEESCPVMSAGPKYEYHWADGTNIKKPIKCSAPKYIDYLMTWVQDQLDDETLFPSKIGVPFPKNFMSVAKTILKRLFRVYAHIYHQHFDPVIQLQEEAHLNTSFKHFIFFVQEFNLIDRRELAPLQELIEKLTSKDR

In general, pEC50 refers to the negative decadic logarithm of the EC50, by convention in mol/L. Broadly, the pIC50 is −log10 of the IC50, conventionally taken in molar units. A lower pIC50 goes with a high IC50. Turning to `CC(C)(Nc1nc(-c2ccncc2F)nc2cnccc12)C(F)(F)F` [Example 134, 2-(3-fluoropyridin-4-yl)-N-(1,1,1-trifluoro-2-methylpropan-2-yl)pyrido[3,4-d]pyrimidin-4-amine], in assay [1], the pEC50 was 5.92. The values for the pIC50 (in assay [2]; in assay [3]; against LATS1) were 6.27, 6.00 and 9.00, respectively.
`C[C@H](N(C)c1nc(-c2ccncc2F)nc2cnccc12)C(F)(F)F` [Example 136, 2-(3-fluoropyridin-4-yl)-N-methyl-N-[(2S)-1,1,1-trifluoropropan-2-yl]pyrido[3,4-d]pyrimidin-4-amine]: in assay [1], the pEC50 was 5.53. Also, the pIC50 in assay [2] is 5.94; in assay [3] it was 5.89; on LATS1 it was 8.70.
The like results for `Cc1n[nH]cc1-c1nc(NC(C)(C)CC(C)(C)O)c2ccncc2n1` [Example 140, 2,4-dimethyl-4-{[2-(3-methyl-1H-pyrazol-4-yl)pyrido[3,4-d]pyrimidin-4-yl]amino}pentan-2-ol] were, in that order, 5.65, 5.91, 5.66 and 8.40.
In assay [1], `CCCNc1nc(-c2c[nH]c3ncccc23)nc2cnccc12` [Example 155, N-propyl-2-{1H-pyrrolo[2,3-b]pyridin-3-yl}pyrido[3,4-d]pyrimidin-4-amine] gave a pEC50 of 5.98. Moreover, the pIC50 was 5.80 in assay [2], 5.59 in assay [3] and 9.00 at LATS1.
For `Cc1cnccc1-c1nc(NC(C)(C)C(F)(F)F)c2ccncc2n1` [Example 157, 2-(3-methylpyridin-4-yl)-N-(1,1,1-trifluoro-2-methylpropan-2-yl)pyrido[3,4-d]pyrimidin-4-amine], the pEC50 in assay [1] was 5.42. For the same compound, the results for the pIC50 (in assay [2]; in assay [3]; on LATS1) were 5.39, 5.04 and 8.22, respectively.
`Cn1nccc1-c1nc(NC(C)(C)C)c2ccncc2n1` [Example 184, N-tert-butyl-2-(1-methyl-1H-pyrazol-5-yl)pyrido[3,4-d]pyrimidin-4-amine] gave a pEC50 in assay [1] of 5.55. In addition, the pIC50 was 5.60 in assay [2], 5.19 in assay [3] and 8.40 at LATS1.
Taken in the same sequence, the figures for `CC1(Nc2nc(-c3ccncc3)nc3c(Cl)nccc23)CC1` [Example 198, 8-chloro-N-(1-methylcyclopropyl)-2-(pyridin-4-yl)pyrido[3,4-d]pyrimidin-4-amine] were 5.49, 5.66, 5.89 and 9.00.
With `CC(C)(C)Nc1nc(-c2ccncc2)nc2cncc(Cl)c12` [Example 251, N-(tert-butyl)-5-chloro-2-(pyridin-4-yl)pyrido[3,4-d]pyrimidin-4-amine], the pEC50 in assay [1] was 4.96. For the same compound, the negative-log IC50 (pIC50) was 5.71 in assay [2], 5.82 in assay [3] and 8.40 against LATS1.
Taken in the same sequence, the figures for `COCCC(C)(C)Nc1cc(-c2ccncc2)nc2cnccc12` [Example 254, N-(4-methoxy-2-methylbutan-2-yl)-2-(pyridin-4-yl)-1,7-naphthyridin-4-amine] were 5.33, 5.54, 5.89 and 8.30.
In turn, `CC(C)OCC(C)(C)Nc1cc(-c2ccncc2)nc2cnccc12` [Example 255, N-[2-methyl-1-(propan-2-yloxy)propan-2-yl]-2-(pyridin-4-yl)-1,7-naphthyridin-4-amine] showed a pEC50 in assay [1] of 5.27. The values for the pIC50 (in assay [2]; in assay [3]; against LATS1) were 5.50, 5.15 and 8.10, respectively.
Taken in the same sequence, the figures for `CC[C@H](C)Nc1cc(-c2ccncc2)nc2cnccc12` [Example 256, N-[(2S)-butan-2-yl]-2-(pyridin-4-yl)-1,7-naphthyridin-4-amine] were 4.81, 4.96, < 5.00 and 8.10.
Taken in the same sequence, the figures for `CC(C)(O)CC(C)(C)Nc1cc(-c2ccncc2)nc2cnccc12` [Example 263, 2,4-dimethyl-4-{[2-(pyridin-4-yl)-1,7-naphthyridin-4-yl]amino}pentan-2-ol] were 5.22, 5.49, < 5.00 and 8.15.
Consider `CN(C)CCC(C)(C)Nc1cc(-c2ccncc2)nc2cnccc12` [Example 265, dimethyl(3-methyl-3-{[2-(pyridin-4-yl)-1,7-naphthyridin-4-yl]amino}butyl)amine], for which, in assay [1], the pEC50 was < 4.70. Further, the pIC50 in assay [2] was 4.65; in assay [3] it was < 5.00; against LATS1, 8.10.
The like results for `CC(C)(O)COCC(C)(C)Nc1cc(-c2ccncc2)nc2cnccc12` [Example 267, 2-methyl-1-(2-methyl-2-{[2-(pyridin-4-yl)-1,7-naphthyridin-4-yl]amino}propoxy)propan-2-ol] were, in that order, 5.01, 5.14, 5.23 and 7.89.
Taken in the same sequence, the figures for `Cc1n[nH]cc1-c1cc(NC(C)(C)C)c2ccncc2n1` [Example 269, N-tert-butyl-2-(3-methyl-1H-pyrazol-4-yl)-1,7-naphthyridin-4-amine] were 6.36, 6.53, 6.10 and 9.00.
The like results for `CC(C)(C)Nc1cc(-c2ccncn2)nc2cnccc12` [Example 270, N-tert-butyl-2-(pyrimidin-4-yl)-1,7-naphthyridin-4-amine] were, in that order, 6.06, 6.37, 6.10 and 8.70.
As to `CC(C)(C)Nc1cc(-c2ccnc(N)n2)nc2cnccc12` [Example 271, 2-(2-aminopyrimidin-4-yl)-N-tert-butyl-1,7-naphthyridin-4-amine], in assay [1], the pEC50 was 5.97. The pIC50 was 6.73 in assay [2], 6.10 in assay [3] and 8.70 against LATS1.
Taken in the same sequence, the figures for `CC(C)(C)Nc1cc(-c2ccnc3[nH]ccc23)nc2cnccc12` [Example 272, N-tert-butyl-2-{1H-pyrrolo[2,3-b]pyridin-4-yl}-1,7-naphthyridin-4-amine] were 5.22, 5.45, 5.09 and 8.70.
In the case of `CC(C)(C)Nc1cc(-c2ccnnc2)nc2cnccc12` [Example 273, N-tert-butyl-2-(pyridazin-4-yl)-1,7-naphthyridin-4-amine], the pEC50 in assay [1] is < 4.70. The pIC50 in assay [2] was < 4.00; in assay [3] it was < 5.00; against LATS1 it was 6.33.
For `CC(C)(C)Nc1cc(-c2ccncc2F)nc2cnccc12` [Example 280, N-tert-butyl-2-(3-fluoropyridin-4-yl)-1,7-naphthyridin-4-amine], the pEC50 in assay [1] is 5.56. Moreover, the pIC50 in assay [2] is 6.32; in assay [3], 5.42; against LATS1, 8.52.
The like results for `CCC(C)(C)Nc1cc(-c2ccncc2F)nc2cnccc12` [Example 281, 2-(3-fluoropyridin-4-yl)-N-(2-methylbutan-2-yl)-1,7-naphthyridin-4-amine] were, in that order, 5.54, 6.18, 5.23 and 8.40.
